Experimental data from article PMC12399569, “Disruption of Spike Priming in Virus Entry: Tetrandrine as a Pan‐Coronavirus Inhibitor” (MedComm, 2025).

How the values were obtained:
Assay type in all cases: binding
HCoV-229E Spike = biological target: T1, HCoV-229E Spike (Human coronavirus 229E, UniProt P15423); test: SPR (Reichert4, CM5 chip, Spike immobilised)
T1 construct: gene S
From the text: SPR (Reichert4, CM5 chip, Spike immobilised) on HCoV-229E Spike | we observed its interaction with the Spike proteins of various coronaviruses in vitro (Figure 5C)

HCoV-OC43 Spike = biological target: T2, HCoV-OC43 Spike (Human coronavirus OC43, UniProt P36334); test: SPR (Reichert4, CM5 chip, Spike immobilised)
T2 construct: gene S
From the text: SPR (Reichert4, CM5 chip, Spike immobilised) on HCoV-OC43 Spike | we observed its interaction with the Spike proteins of various coronaviruses in vitro (Figure 5C)

hTMPRSS2 = biological target: T3, hTMPRSS2 (Homo sapiens, UniProt O15393); test: SPR (CM5 chip, hTMPRSS2 immobilised)
T3 construct: gene TMPRSS2; purified protein; immobilised on CM5 chip
From the text: SPR (CM5 chip, hTMPRSS2 immobilised) on hTMPRSS2 | Through SPR assay, we validated that tetrandrine could also bind to TMPRSS2

T2 sequence (P36334 14-1353): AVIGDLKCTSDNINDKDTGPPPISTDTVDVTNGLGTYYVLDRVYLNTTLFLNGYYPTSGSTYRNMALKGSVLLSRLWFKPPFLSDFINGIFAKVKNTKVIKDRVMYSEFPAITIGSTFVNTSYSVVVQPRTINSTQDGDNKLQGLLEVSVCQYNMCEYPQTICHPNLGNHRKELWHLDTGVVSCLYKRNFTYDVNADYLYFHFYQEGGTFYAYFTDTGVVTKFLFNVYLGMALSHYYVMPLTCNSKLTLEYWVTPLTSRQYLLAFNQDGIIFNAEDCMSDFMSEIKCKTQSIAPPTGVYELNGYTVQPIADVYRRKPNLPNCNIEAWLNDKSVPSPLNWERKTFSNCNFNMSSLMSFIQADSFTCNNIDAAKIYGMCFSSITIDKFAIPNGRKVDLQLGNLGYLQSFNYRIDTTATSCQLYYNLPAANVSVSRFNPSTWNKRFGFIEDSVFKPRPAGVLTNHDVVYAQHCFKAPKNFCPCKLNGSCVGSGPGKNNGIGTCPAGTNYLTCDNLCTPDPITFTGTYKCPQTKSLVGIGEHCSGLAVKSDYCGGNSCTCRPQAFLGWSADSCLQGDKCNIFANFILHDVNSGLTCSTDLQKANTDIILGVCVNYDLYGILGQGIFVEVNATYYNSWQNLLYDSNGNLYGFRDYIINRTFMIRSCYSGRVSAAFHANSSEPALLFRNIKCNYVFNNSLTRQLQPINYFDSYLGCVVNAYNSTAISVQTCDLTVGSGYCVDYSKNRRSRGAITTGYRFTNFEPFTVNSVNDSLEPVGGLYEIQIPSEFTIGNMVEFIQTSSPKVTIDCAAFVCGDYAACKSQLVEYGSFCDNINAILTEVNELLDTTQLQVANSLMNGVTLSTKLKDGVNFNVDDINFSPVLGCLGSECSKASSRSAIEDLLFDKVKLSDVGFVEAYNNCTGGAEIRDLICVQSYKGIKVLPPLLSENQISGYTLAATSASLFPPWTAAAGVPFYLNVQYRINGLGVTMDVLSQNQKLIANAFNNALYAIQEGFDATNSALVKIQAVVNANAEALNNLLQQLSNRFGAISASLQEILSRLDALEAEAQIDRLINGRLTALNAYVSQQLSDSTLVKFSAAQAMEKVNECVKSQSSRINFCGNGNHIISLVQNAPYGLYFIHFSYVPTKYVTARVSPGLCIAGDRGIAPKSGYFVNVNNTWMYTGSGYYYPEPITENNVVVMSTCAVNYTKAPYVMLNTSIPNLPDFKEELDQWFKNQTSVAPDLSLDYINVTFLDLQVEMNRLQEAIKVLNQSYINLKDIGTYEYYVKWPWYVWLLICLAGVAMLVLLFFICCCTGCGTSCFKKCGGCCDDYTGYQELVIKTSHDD
T3 sequence (O15393 whole entry): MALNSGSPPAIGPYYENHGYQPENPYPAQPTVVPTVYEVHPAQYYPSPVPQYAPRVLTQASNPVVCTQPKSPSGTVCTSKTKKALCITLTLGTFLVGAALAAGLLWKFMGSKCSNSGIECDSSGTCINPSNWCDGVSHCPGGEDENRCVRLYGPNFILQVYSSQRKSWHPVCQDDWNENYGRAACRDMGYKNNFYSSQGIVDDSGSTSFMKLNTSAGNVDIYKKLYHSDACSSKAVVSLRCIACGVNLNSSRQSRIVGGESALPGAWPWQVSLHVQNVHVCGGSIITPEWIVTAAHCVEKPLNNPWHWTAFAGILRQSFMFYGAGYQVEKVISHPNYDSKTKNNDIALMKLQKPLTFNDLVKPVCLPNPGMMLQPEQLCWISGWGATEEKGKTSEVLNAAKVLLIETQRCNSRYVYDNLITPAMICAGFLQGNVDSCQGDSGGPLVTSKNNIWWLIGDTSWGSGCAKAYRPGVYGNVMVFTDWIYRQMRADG
T1 sequence (P15423 16-1173): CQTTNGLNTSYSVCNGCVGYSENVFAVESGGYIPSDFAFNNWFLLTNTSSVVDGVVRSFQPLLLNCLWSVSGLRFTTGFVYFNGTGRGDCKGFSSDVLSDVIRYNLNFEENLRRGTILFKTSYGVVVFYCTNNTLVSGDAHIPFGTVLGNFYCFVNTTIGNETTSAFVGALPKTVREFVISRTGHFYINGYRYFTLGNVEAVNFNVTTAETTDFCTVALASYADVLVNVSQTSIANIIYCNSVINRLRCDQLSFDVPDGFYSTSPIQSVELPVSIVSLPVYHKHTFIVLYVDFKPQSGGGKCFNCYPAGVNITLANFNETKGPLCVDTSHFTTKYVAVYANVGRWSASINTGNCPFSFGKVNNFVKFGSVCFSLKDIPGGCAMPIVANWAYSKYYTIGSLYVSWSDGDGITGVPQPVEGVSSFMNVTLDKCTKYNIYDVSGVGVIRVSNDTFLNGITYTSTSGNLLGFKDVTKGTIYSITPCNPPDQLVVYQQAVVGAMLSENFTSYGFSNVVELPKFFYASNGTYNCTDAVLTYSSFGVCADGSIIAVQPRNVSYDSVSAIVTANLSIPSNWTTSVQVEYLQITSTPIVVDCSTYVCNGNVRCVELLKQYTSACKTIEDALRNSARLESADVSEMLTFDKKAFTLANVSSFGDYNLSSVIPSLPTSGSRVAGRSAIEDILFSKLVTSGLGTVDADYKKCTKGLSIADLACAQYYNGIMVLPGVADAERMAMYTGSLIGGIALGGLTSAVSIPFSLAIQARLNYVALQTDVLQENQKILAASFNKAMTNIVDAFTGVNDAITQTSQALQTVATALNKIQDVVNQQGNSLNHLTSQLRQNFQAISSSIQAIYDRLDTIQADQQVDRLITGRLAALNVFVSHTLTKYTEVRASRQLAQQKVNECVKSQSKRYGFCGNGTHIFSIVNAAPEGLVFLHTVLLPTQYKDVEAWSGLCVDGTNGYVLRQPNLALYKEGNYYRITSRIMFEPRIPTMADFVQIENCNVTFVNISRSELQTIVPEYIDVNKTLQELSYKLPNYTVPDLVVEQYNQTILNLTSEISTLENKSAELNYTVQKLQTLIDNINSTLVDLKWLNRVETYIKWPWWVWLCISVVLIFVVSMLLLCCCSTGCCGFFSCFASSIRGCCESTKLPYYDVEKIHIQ

Compound: COc1ccc2cc1Oc1ccc(cc1)C[C@H]1c3cc(c(OC)cc3CCN1C)Oc1c(OC)c(OC)cc3c1[C@H](C2)N(C)CC3 [tetrandrine]
- Kd (HCoV-229E Spike): ~0.53 µM
- Kd (HCoV-OC43 Spike): ~21.3 µM
- Kd (hTMPRSS2): 4.59 µM
